Measurements reported in the Deep4Chem optical property database.

Assay: solvent given as SMILES

With CCOC(=O)COc1ccc(/C=C/c2c(CC)c(C)c3n2[B-](F)(F)[N+]2=C(c4[nH]c(C)c(CC)c4C)c4ccccc4C2=C3C)cc1 the absorption maximum (in C1CCOC1) was 675 nm, the absorption maximum (in CC#N) was 664 nm and the absorption maximum (in CCCCCC) was 677 nm. It also gave an absorption maximum (in CO) of 666 nm, an absorption maximum (in Cc1ccccc1) of 682 nm and an absorption maximum (in ClCCl) of 675 nm.
COc1c2ccccc2c(OC)c2c1c1cc(F)ccc1n2C showed an absorption maximum (in C1CCCCC1) of 415 nm, an absorption maximum (in CC#N) of 417 nm and an absorption maximum (in CO) of 416 nm. For the same compound, the absorption maximum (in ClCCl) was 419 nm.
For Cc1cc(C)c(C2=C3C=CC=[N+]3[B-]3(c4ccccc4)Oc4cc(O)cc5c6ccc(C)cc6c6cc2n3c6c45)c(C)c1 (stereo not drawn), the absorption maximum (in ClC(Cl)Cl) was 643 nm.
For CN(C)CCNc1ccc([N+](=O)[O-])cc1[N+](=O)[O-], the absorption maximum (in C1CCCCC1) was 334 nm, the absorption maximum (in C1CCOC1) was 352 nm and the absorption maximum (in C1COCCO1) was 348 nm. It also gave an absorption maximum (in CC#N) of 352 nm, an absorption maximum (in CC(C)=O) of 352 nm and an absorption maximum (in CCCCCC) of 330 nm. For the same compound, the absorption maximum (in CCO) was 348 nm, the absorption maximum (in CCOC(C)=O) was 347 nm and the absorption maximum (in CN(C)C=O) was 358 nm. For the same compound, the absorption maximum (in CO) was 350 nm, the absorption maximum (in CS(C)=O) was 363 nm and the absorption maximum (in Cc1ccccc1) was 347 nm. The absorption maximum (in ClC(Cl)Cl) was 350 nm and the absorption maximum (in ClCCl) was 352 nm.
Work on O=S1(=O)C(c2ccsc2)=C(c2ccsc2)c2ccccc21 yielded an absorption maximum (in C1CCOC1) of 350 nm.
With CCOC(=O)C1=C(C)NC2=C(C(=O)c3ccccc32)C1c1ccc(N(C)C)cc1 (stereo not drawn) the absorption maximum (in C1CCOC1) was 374 nm, the absorption maximum (in C1COCCO1) was 373 nm and the absorption maximum (in CC#N) was 379 nm. It also gave an absorption maximum (in CCO) of 395 nm, an absorption maximum (in CN(C)C=O) of 385 nm and an absorption maximum (in CO) of 389 nm. The absorption maximum (in CS(C)=O) was 400 nm, the absorption maximum (in ClC(Cl)(Cl)Cl) was 371 nm and the absorption maximum (in ClC(Cl)Cl) was 383 nm. For the same compound, the absorption maximum (in ClCCl) was 387 nm.
For CCOCCC1=Cc2nc1ccc1[nH]c(cc1CCOCC)c1nc(ccc3[nH]c2cc3CCOCC)C(CCOCC)=C1, the absorption maximum (in Cc1ccccc1) was 638 nm.
CCOC(=O)/N=c1/oc2ccc(OC)cc2cc1C#N showed an absorption maximum (in ClCCl) of 388 nm.
Cc1c(C(=O)c2ccc3c4cccc5cccc(c6cccc2c63)c54)c2ccc3cccc4c5cccc6ccc1c(c65)c2c34 showed an absorption maximum (in ClCCl) of 468 nm.
c1ccc(C[n+]2cc3ccc4c[n+](Cc5ccccc5)cc5ccc(c2)c3c45)cc1 showed an absorption maximum (in CC#N) of 421 nm.
For CCCN1/C(=C\c2c(-c3ccc(N(C)C)cc3)c(=O)c2=O)C=Cc2ccccc21, the absorption maximum (in C1CCCCC1) was 358 nm, the absorption maximum (in Cc1ccccc1) was 362 nm and the absorption maximum (in ClCCl) was 509 nm.
Work on CCOC(=O)C1=CNC=C(C(=O)OCC)C1c1ccccc1 yielded an absorption maximum (in C1CCOC1) of 355 nm and an absorption maximum (in CO) of 355 nm.
In the case of c1ccc2cc3c(cc2c1)-c1cccc2cc4ccccc4c-3c12, the absorption maximum (in CCCCCCC) is reported as 469 nm.
In the case of Cc1ccc(C(=O)NC(C)(C)C)c2c1ccc1c3ccccc3c3ccccc3c12, the absorption maximum (in ClCCl) is reported as 335 nm.
Work on CC(C)(C)n1c(=O)c2cc3ccc4cccc5ccc(c2c1=O)c3c45 yielded an absorption maximum (in ClC(Cl)Cl) of 423 nm.
With COC(=O)c1cc(=O)n(Cc2ccccc2)c2cc(-c3ccc(OC)cc3)sc12 the absorption maximum (in CC#N) was 400 nm and the absorption maximum (in ClCCl) was 404 nm.
In the case of COCCC1=Cc2nc1ccc1[nH]c(cc1CCOC)c1nc(c(O)cc3[nH]c2cc3CCOC)C(CCOC)=C1, the absorption maximum (in Cc1ccccc1) is reported as 680 nm.
CCC1=[N+]2c3c(c4ccc(Oc5c(C)cc(C)cc5C)c5cc6c(Oc7c(C)cc(C)cc7C)ccc7c8cc(CC)n(c8c3c(c54)c67)[B-]2(F)F)=C1 gave an absorption maximum (in Cc1ccccc1) of 867 nm.
For CC(C)CCCCN1CCc2c1ccc1c3c(ccc21)C(=O)CCC3, the absorption maximum (in C1CCCCC1) was 362 nm, the absorption maximum (in CC#N) was 370 nm and the absorption maximum (in CC(C)O) was 376 nm. It also gave an absorption maximum (in CCC(C)=O) of 368 nm, an absorption maximum (in CCO) of 374 nm and an absorption maximum (in CCOC(C)=O) of 366 nm. The absorption maximum (in CS(C)=O) was 376 nm, the absorption maximum (in Cc1ccccc1) was 368 nm and the absorption maximum (in ClCCl) was 373 nm. It also gave an absorption maximum (in Clc1ccccc1) of 370 nm.
Compound CCN(CC)c1ccc(Nc2cc3oc(-c4ccc(C#N)cc4)nc3c3ccccc23)cc1 has an absorption maximum (in C1COCCO1) of 420 nm, an absorption maximum (in CC(C)=O) of 420 nm and an absorption maximum (in ClCCl) of 420 nm. The absorption maximum (in c1ccccc1) was 420 nm.
For Fc1c(F)c(-n2c3ccccc3c3ccccc32)c(F)c(F)c1/C=C/C(=C(c1ccccc1)c1ccccc1)c1ccccc1, the absorption maximum (in Cc1ccccc1) was 360 nm.
Work on CCc1cccc(CC)c1-c1c2ccccc2c(C#Cc2ccccc2)c2cc3ccccc3cc12 yielded an absorption maximum (in ClCCl) of 523 nm.
Work on N#Cc1ccc(-c2nc(-c3ccccc3)c3ccccn23)cc1 yielded an absorption maximum (in C1CCCCC1) of 377 nm, an absorption maximum (in CC#N) of 377 nm and an absorption maximum (in CO) of 372 nm. For the same compound, the absorption maximum (in ClCCl) was 380 nm and the absorption maximum (in O) was 430 nm.
Work on COC(=O)C1=C(C(=O)OC)C2(c3cc([N+](=O)[O-])ccc3-c3ccc([N+](=O)[O-])cc32)C2(/C=C/c3ccccc3)c3cc(OC)c(OC)cc3CCN12 (stereo not drawn) yielded an absorption maximum (in ClCCl) of 337 nm.
COc1cc2c(cc1-c1ccc(Cl)cc1)Cc1c3c(c4c(c1-2)-c1cc(OC)c(-c2ccc(Cl)cc2)cc1C4)C(=O)N(CCC(C)C)C3=O showed an absorption maximum (in C1CCOC1) of 406 nm.
Compound Cc1cc2ccccc2c2[nH]c3ccccc3c12 has an absorption maximum (in ClCCl) of 300 nm.
In the case of CCCCCCn1c(=O)c2c3[nH]c4ccccc4sc3c3c(=O)n(CCCCCC)c(=O)c3c2c1=O, the absorption maximum (in ClCCl) is reported as 500 nm.
Work on CCn1c2ccc(/C=C/c3ccc4c(c3)c3cc(-c5nc6ccccc6s5)ccc3n4CC)cc2c2cc(-c3nc4ccccc4s3)ccc21 yielded an absorption maximum (in C1CCOC1) of 361 nm and an absorption maximum (in CCOC(C)=O) of 360 nm.
Compound CC/[NH+]=c1\cc2oc3cc(NCCN)c4ccccc4c3nc-2cc1C has an absorption maximum (in CCO) of 590 nm and an absorption maximum (in O) of 590 nm.
CC/[NH+]=c1\cc2oc3cc(NCCC(=O)NCCCCC(NC(C)=O)C(=O)OC)c4ccccc4c3nc-2cc1C (stereo not drawn) gave an absorption maximum (in CCO) of 590 nm and an absorption maximum (in O) of 590 nm.
Compound N#Cc1c(N2CCCC2)cc(-c2ccccc2)c2c1-c1ccccc1C2=O has an absorption maximum (in C1CCOC1) of 392 nm.
c1ccc(-c2nn(-c3ccccc3)c3nc4ccccc4cc23)cc1 gave an absorption maximum (in C1CCCCC1) of 401.45 nm, an absorption maximum (in C1CCOC1) of 398.57 nm and an absorption maximum (in CC#N) of 396.83 nm. It also gave an absorption maximum (in CC(C)=O) of 396.04 nm, an absorption maximum (in CCCCCl) of 398.72 nm and an absorption maximum (in CCCCOCCCC) of 398.57 nm. The absorption maximum (in CN(C)C=O) was 397.93 nm.
O=C(O)CCCCCn1c2ccc(Br)cc2c(=O)c2cc(Br)ccc21 showed an absorption maximum (in O) of 425 nm.
Work on O=C(c1ccc(C(=C(c2ccc(C(=O)c3ccc(-n4c5ccccc5c5ccccc54)cc3)cc2)c2ccc(C(=O)c3ccc(-n4c5ccccc5c5ccccc54)cc3)cc2)c2ccccc2)cc1)c1ccc(-n2c3ccccc3c3ccccc32)cc1 yielded an absorption maximum (in C1CCOC1) of 340 nm.
With N#Cc1ccc(N2c3ccccc3C(c3ccccc3)(c3ccccc3)c3ccccc32)cc1 the absorption maximum (in Cc1ccccc1) was 352 nm.
c1cc2c3c(c1)ccc1[n+]3[B-]3(Oc4cccc5ccc6[n+](c45)[B-](O2)(O3)n2c-6cc3c4ccccc4c4ccccc4c32)n2c-1cc1c3ccccc3c3ccccc3c12 showed an absorption maximum (in ClCCl) of 472 nm.
With COC(=O)c1c(-c2cc3ccccc3oc2=O)nn(-c2cccc(F)c2)c1C(=O)OC the absorption maximum (in ClCCl) was 323 nm.
COCCOCCOCCOCC(COCCOCCOCCOC)Oc1cc(/C=C/c2ccc(C=C(C#N)C#N)cc2)c(OC(COCCOCCOCCOC)COCCOCCOCCOC)cc1/C=C/c1ccc(C=C(C#N)C#N)cc1 gave an absorption maximum (in ClCCl) of 465 nm.
For COc1ccc(-c2ncc3ccccn23)cc1, the absorption maximum (in ClC(Cl)Cl) was 306 nm.
